Test results: US8741843B2, “Compositions and methods for inducing angiogenesis” (priority 2006, dated 2014)
“Also recorded” adds a separate entry of the source.

Experiments:
endothelial cells [1] = test: CoCl2-induced apoptosis of endothelial cells (Annexin-FITC/PI FACS); format: cell-based, human; conditions: 24 hours CoCl2 treatment, normoxia about 27%
Experimental: FIGS. 33a-f are representative FACS analyses depicting a specific inhibition of hypoxia-induced apoptosis of endothelial cells by ADOPep1. Endothelial cells in Petri dishes were incubated for 24 hours with 5% FCS in supplement-free endothelial cell growth medium under normoxia (FIGS. 33a and d), exposed to 24 hours hypoxia (Figures c and f) or incubated under normoxia with 100 micromolar per 100,000 cells CoCl2 (FIGS. 33b and e), in the absence (FIGS. 33a-c) or presence (FIGS. 33d-f) of 10 ng/ml Adopep1 peptide (for 24 hours). Cells were trypsinized and immediately re-suspended in PBS with 5% FCS and 0.1% Na-azide. Samples containing 100,000 cells were tested for apoptosis using the Annexin-FITC (X axis) and propidium iodide (Y axis) kit (Bender Medsystems, Vienna, Austria), according to manufacturer's instructions. Results were analyzed by FACScan (Beckton Dickinson).
FIG. 34 is a histogram depicting the FACS results of the experiments described in FIGS. 33a-f. Data represents average±SD of 2 experiments.

[2] = system: GRP78 receptor on endothelial cells; test: Competitive binding of ADOPeps to GRP78 (anti-GRP78 antibody ELISA on endothelial cells); set-up: species or system human; conditions: summary of 4 experiments
Experimental: FIG. 19 is a graph depicting inhibition of binding (in percentages) of anti-GRP78 antibody to endothelial cells by increasing concentrations of ADOPep1, 2, and 3 peptides. Endothelial cells were incubated for 2 hours with increasing concentrations of ADOPeps, following which the cells were incubated for another 1 hour with the 2 μg/ml of anti-GRP78 antibody and the amount of bound antibody on EC was detected using an ELISA reader.
Endothelial cells (20,000 per well) were seeded in 96 well plates for 24 hours in the presence of the complete medium. Plates were washed with PBS over night and rehydrated with PBS, 0.1% Na Azide and 5% FCS. ADOPep1, ADOPep2 and ADOPep3 were added to washed plates for 2 hours at room temperature at concentrations of 0.01, 0.1 and 1 microgram per ml. Anti-GRP78 antibody (goat polyclona IgG, Santa Cruz Biotechnology, Calif., USA) was added to the plates for 1 hour at room temperature at a concentration of 2 micrograms/ml per well. After washing, bound anti-GRP78 antibody was detected by incubation with anti-goat IgG Peroxidase conjugated (Jackson Immuneresearch Laboratories, PA, USA). After 5 washes with PBS-0.1% Tween 20, 100 μl/well of TMB+ Substrate-Chromogen (DAKOCytomation, CA, USA) was added for a maximum of 30 minutes. Reaction was stopped with 1N HCl. Color developed was determined by an ELISA reader at 450 nm.

ERK½ = ERK½ phosphorylation in endothelial cells under hypoxia (Western blot, densitometry); format: cell-based, human; conditions: for ERK½ phosphorylation (in words): endothelial cells under hypoxia, 10 ng/ml
Experimental: FIGS. 30a-b are Western blot analyses depicting induction of phosphorylation of ERK by ADoPep1 and Motif A. Endothelial cells under starvation conditions and 5 hours hypoxia were incubated for 5 (lanes 2 and 6), 20 (lanes 3 and 7), 30 (lanes 4 and 8) and 60 (lanes 5 and 9) minutes with 10 ng/ml ADoPep1 (Lanes 2-5) or Motif A (lanes 6-9) peptides or remained under hypoxia without a further incubation with a peptide (lane 1). After incubation, lysates were prepared, subject to SDS-PAGE and blotting on a nitrocellulose membrane. Western Blot analysis was performed using anti-Phospho ERK½ antibody. […] FIG. 30a—Experiment 1; FIG. 30b—Experiment 2. The percent adjusted volume as determined by a densitometric analysis software to compare net band densities was as follows: FIG. 30a, lane 1-4.5, lane 2-9.3, lane 3-13.7, lane 4-13.3, lane 5-11.2, lane 6-10.7, lane 7-12.4, lane 8-12.3 and lane 9-12.4; FIG. 30b, lane 1-4.21, lane 2-12.4, lane 3-12.5, lane 4-14.8, lane 5-10.9, lane 6-14.9, lane 7-9.8, lane 8-12.7 and lane 9-7.8.
FIG. 31 is a Western blot analysis depicting the level of phosphorylated ERK (pERK) in endothelial cells activated for 20 minutes with ADOPep1 and motif A and inhibited by pERK-inhibitor peptide. Endothelial cells (from cord 1) under starvation conditions and 5 hours hypoxia were incubated with 10 ng/ml ADOPep1 (lanes 3 and 4) or motif A (lanes 1 and 2) peptides in the presence (lanes 2 and 4) or absence (lanes 1 and 3) of p-ERK-inhibitor peptide (Santa Cruz). For control, the endothelial cells under starvation conditions and 5 hours hypoxia (lane 5) were also incubated with the p-ERK-inhibitor peptide (lane 6). […] The percent adjusted volume as determined by a densitometric analysis software to compare net band densities was as follows: lane 1-19, lane 2-14, lane 3-14, lane 4-8.8, lane 5-11, lane 6-2.1.
FIGS. 32a-b are Western blot analyses depicting the effect of ADOPeps on the level of phosphorylated ERK. Endothelial cells (EC) from cord 1 (FIG. 32a) or cord 2 (FIG. 32b) under hypoxia (5 hours) were incubated for 20 or 30 minutes with 10 ng/ml of AdoPep1, AdoPep2 and AdoPep3 or remained untreated (i.e., under hypoxia without any peptide). Western Blot analyses of samples cell lysates were performed with anti Phospho ERK antibody on nitrocellulose membranes. […] The percent adjusted volume as determined by a densitometric analysis software to compare net band densities was as follows: FIG. 32a, lane 1-11, lane 2-13, lane 3-11, lane 4-5, lane 5-11, lane 6-13, lane 7-17, lane 8-16.7; FIG. 32b, lane 1-17, lane 2-22, lane 3-19, lane 4-7, lane 5-8, lane 6-13, lane 7-14, lane 8-1.

[3] = system: endothelial cells (HUVEC); test: Proliferation of endothelial cells under hypoxia ([H3]Thymidine incorporation); format: cell-based, human; conditions: 24 hours starvation, 10 ng/ml
Experimental: FIG. 5 is a graph depicting cell proliferation as a function of ADOPeps' concentration. Proliferation of endothelial cells (EC) under hypoxia conditions was measured by [H^3]Thymidine incorporation. Endothelial cells (12,000/well) in minimal growth medium were incubated for 24 hours in the presence of 1, 10 and 100 ng/ml of ADOPep1 (SEQ ID NO:2; red diamonds), 2 (SEQ ID NO:3; blue squares) and 3 (SEQ ID NO:4; green triangles) peptides.
HUVEC from passage 3 were used for proliferation experiments. Endothelial cells (15,000 cells/well) were seeded on 24-wells in the presence of endothelial cell growth medium (Promocell, Heidelberg, Germany) with supplements and incubated for 24 hours. After then, cells were exposed to 24 hours starvation in a medium free of supplements. ADOPeps were added at concentrations of 1, 10 and 100 ng/ml for 24 hours under hypoxic conditions. 2 μCi/well of Thymidine (SIGMA, Rehovot Israel) were added or over night incubation followed by 3 washes with PBS before harvesting at 37° C. with 300 μl/well of 0.5 M NaOH. Cell lysates were transferred to scintillation vials with 2 ml scintillation liquid Ultima Gold (Packard Bioscience, Meriden, USA) and counted in a β counter. Results were obtained as counts per minute (cpm).

endothelial cells [4] = test: Tube formation of endothelial cells on Cultrex Basement Membrane Extract; format: cell-based, human; conditions: 10 ng/ml, 18 hours, starvation and normoxic conditions
Experimental: FIG. 27 is a graph depicting induction of tube formation using AdoPep1 and Motif A (SEQ ID NO:7) but not the scrambled sROY peptide. Endothelial cells were incubated in media without supplements for 24 hours, and 50,000 cells were then transferred in 500 μl medium to 24-well plates precoated with 250 μl Cultrex Basement Membrane Extract (with reduced growth factors) (R&D Systems, Minneapolis, Minn., USA). AdoPep1, Motif A and scrambled sROY peptides were added at an optimal concentration of 10 ng/ml (based on preliminary findings), and the slides were examined by light microscopy after 18 hours incubation. The results represent average±SD of three experiments using 3 different cords. The length of the network of connected cells (tube formation) was measured in micrometers in 5 different areas of each well using Image-Pro Plus Image software (Media Cybernetics, Silver Spring, Md., USA).

[5] = FIG. 32a cord 1, 10 ng/ml, 20 minutes, untreated 11, 13
[6] = FIG. 32a cord 1, 10 ng/ml, 30 minutes, untreated 11, 13
[7] = FIG. 32b cord 2, 10 ng/ml, 20 minutes, untreated 17
[8] = FIG. 32b cord 2, 10 ng/ml, 30 minutes, untreated 8

Row | Molecule | level of apoptosis (endothelial cells [1]) | inhibition of binding of anti-GRP78 antibody to EC (in words) [2] | percent adjusted volume of phospho ERK band (ERK½; [5]) | percent adjusted volume of phospho ERK band (ERK½; [6]) | percent adjusted volume of phospho ERK band (ERK½; [7]) | percent adjusted volume of phospho ERK band (ERK½; [8]) | ERK½ phosphorylation (in words) (ERK½) | proliferation of endothelial cells [3] | tube formation (length of the network of connected cells) (endothelial cells [4]; listed as scrambled sROY) | tube formation (length of the network of connected cells) (endothelial cells [4]; listed as scrambled sROY peptide)
1 | [Cl][Co][Cl] [CoCl2, Cobalt-Chloride, reference compound] | ~67% | – | – | – | – | – | – | – | – | –
2 | AVTLENFLHWRR [ADOPep3, ADAM15 derived peptide] | – | some degree of inhibition | 11% | 5% | 7% | 1% | had not effect on ERK½ phosphorylation | – | – | –
3 | ENFLHWRRAHLL [ADOPep2, ADAM15 derived peptide] | – | some degree of inhibition | 11% | 13% | 19% | 14% | induced ERK½ phosphorylation; also recorded: increase in ERK½ phosphorylation | capable of inducing proliferation of EC | – | –
4 | RYHLIPRGWDHS [sRoY, scrambled control peptide, reference compound] | – | not effective; also recorded: no specific inhibition effect | – | – | – | – | – | – | did not induced tube formation | no effect on tube formation
